Results reported in patent US5817324A, “Use of arylpyrroles for the control of resistant insect populations” (American Cyanamid Company, priority 1997, dated 1998).

Key:
Assay type in all cases: in vivo
[1] = system: Susceptible strain of horn flies (Haematobia irritans); assay: treated filterpaper-tarsal contact 24 hour bioassay, susceptible horn flies (Example 2); settings: Table II
Protocol: (§1) In this bioassay, highly pyrethroid-resistant wild flies and flies of a pyrethroid-susceptible lab strain are used. All flies are held in plastic petri dishes and exposed to sequential rates of test compound residue on filter paper^1. A 1.25 inch hole is cut in the bottom half of the 100 mL petri dish and covered with fiberglass window screen. The bottom is used as the top in this bioassay, in order that the flies may be blood fed through the screened opening with a muslin pad saturated with citrated cattle blood.
(§2) The experiments are conducted in triplicate to determine 24 hour LC50 data for the test compound and cypermethrin on susceptible and pyrethroid-resistant horn flies. The experiments are conducted on site so that freshly captured pyrethroid-resistant horn flies can be used. On the exemplified site, very high levels of pyrethroid resistance had been selected through several years of pyrethroid cattle ear tag use^2. Wild pyrethroid-resistant horn flies are tested within 1 hour of capture to minimize check mortality. The resistance factor (RF) is determined by the following equation: […]
(§3) The LC50 is the concentration in μlg/cm^2 of test com-pound required to kill 50% of the fly population tested. The LC50 values are determined from the mortality data using standard log probit analysis techniques^3, and are within 95% confidence limits^1. The data obtained is shown in Table I. The references listed below are incorporated herein by reference thereto.
(§4) Evaluation Of Test Compounds vs. Permethrin On Susceptible And Resistant Strains Of Horn Flies (Haematobia irritans)
(§5) Using essentially the standard treated filterpaper-tarsal contact 24 hour bioassay described in Example 1, the following test compounds and pyrethroid insecticide are evaluated: […]

[2] = system: pyrethroid-resistant wild horn flies (Haematobia irritans); assay: 24 hour treated filter paper bioassay, pyrethroid-resistant horn flies, with resistance factor (Example 1)
Protocol: (§6) Evaluation Of The Effect Of Test Compounds vs. Cypermethrin On Susceptible And Resistant Strains Of Horn Flies (Haematobia irritans).
as §1
(§7) The experiments are conducted in triplicate to determine 24 hour LC50 data for the test compound and cypermethrin on susceptible and pyrethroid-resistant horn flies. The experiments are conducted on site so that freshly captured pyrethroid-resistant horn flies can be used. On the exemplified site, very high levels of pyrethroid resistance had been selected through several years of pyrethroid cattle ear tag use^2. Wild pyrethroid-resistant horn flies are tested within 1 hour of capture to minimize check mortality. The resistance factor (RF) is determined by the following equation:
(§8) RF=Resistant LC50 .div.Susceptible LC50
as §3

[3] = system: pyrethroid-susceptible Peak Hill strain sheep body lice; assay: treated cotton square contact bioassay, pyrethroid-susceptible sheep body lice (Example 3); settings: 16 hours
Protocol: (§9) Evaluation Of Test Compound Activity Against Susceptible And Resistant Sheep Body Lice
(§10) In this evaluation, test compounds are dissolved in acetone and diluted in a gradient series. One mL aliquots of the acetone dilutions are pipetted onto 6 cm cotton squares. The treated squares are dried and put into 9 cm petri dishes. Adult lice from the pyrethroid-susceptible Peak Hill strain and the pyrethroid-resitant Rowena strain are collected by suction from sheep, transferred onto each treated square and confined using a stainless steel ring (50 mm diameter×20 mm). After 16 hours, the lice are scored as dead, moribund or alive. In this bioassay, the test compound killed, rather than knocked-down lice. Each treatment is replicated. Standard log probit analysis techniques are used to determine the LC50 and LC99 values from the mortality data, and are within 95% confidence limits. The LC50 values are then used to determine the resistance factor (RF) as shown below.
(§11) The LC50 is the concentration in mg/L of test compound required to kill 50% of the lice population tested. The LC99 is the concentration in mg/L of test compound required to kill 99% of the lice population tested.

[4] = system: Resistant strain of horn flies (Haematobia irritans); assay: treated filterpaper-tarsal contact 24 hour bioassay, resistant horn flies, with resistance factor (Example 2); settings: Table II; for Resistant LC50: resistant horn flies
Protocol: as §1, §7, §8, §3, §4, §5

[5] = system: pyrethroid-resistant Rowena strain sheep body lice; assay: treated cotton square contact bioassay, pyrethroid-resistant sheep body lice, with resistance factor (Example 3); settings: 16 hours
Protocol: as §9, §10, §8, §11

[6] = system: pyrethroid-susceptible lab strain horn flies (Haematobia irritans); assay: 24 hour treated filter paper bioassay, pyrethroid-susceptible horn flies (Example 1)
Protocol: as §6, §1, §2, §3

[7] = Experiment 1, pyrethroid-resistant horn flies
[8] = Experiment 2, pyrethroid-resistant horn flies
[9] = Experiment 3, pyrethroid-resistant horn flies

CCOCn1c(-c2ccc(Cl)cc2)c(C#N)c(Br)c1C(F)(F)F [Compound A, 4-bromo-2-(p-chlorophenyl)-1-(ethoxymethyl)-5-(trifluoromethyl)pyrrole-3-carbonitrile]
Susceptible LC50 [1]: 1.691 μg/cm^2 | RF (resistance factor; Resistant LC50 ÷ Susceptible LC50) ([2]; Experiment 1): 0.30 | Resistant LC50 [2, 7]: 0.356 μg/cm^2 | RF (resistance factor; Resistant LC50 ÷ Susceptible LC50) ([2]; Experiment 2): 0.14 | Resistant LC50 [2, 8]: 0.294 μg/cm^2 | RF (resistance factor; Resistant LC50 ÷ Susceptible LC50) ([2]; Experiment 3): 0.23 | Resistant LC50 [2, 9]: 0.287 μg/cm^2 | Susceptible LC50 [3]: 8.30 µg/mL | EC99 ([3]; read-out: Susceptible LC99): 52.8 µg/mL | RF (resistance factor; Resistant LC50 ÷ Susceptible LC50) [4]: 0.23 | Resistant LC50 [4]: 0.391 μg/cm^2 | Resistant LC50 ([5]; Rowena strain): 5.85 µg/mL | EC99 ([5]; Rowena strain, read-out: Resistant LC99): 24.5 µg/mL | RF (resistance factor; Resistant LC50 ÷ Susceptible LC50) ([5]; sheep body lice): 0.7048 | Susceptible LC50 ([6]; Experiment 1): 1.2 μg/cm^2 | Susceptible LC50 ([6]; Experiment 2): 2.15 μg/cm^2 | Susceptible LC50 ([6]; Experiment 3): 1.25 μg/cm^2

CC1(C)C(C=C(Cl)Cl)C1C(=O)OC(C#N)c1cccc(Oc2ccccc2)c1 (centres unmarked) [Compound B, Cypermethrin, reference compound]
RF (resistance factor; Resistant LC50 ÷ Susceptible LC50) ([2]; Experiment 1): 640 | Resistant LC50 [2, 7]: 79.02 μg/cm^2 | RF (resistance factor; Resistant LC50 ÷ Susceptible LC50) ([2]; Experiment 2): 1144 | Resistant LC50 [2, 8]: 65.20 μg/cm^2 | RF (resistance factor; Resistant LC50 ÷ Susceptible LC50) ([2]; Experiment 3): 3636 | Resistant LC50 [2, 9]: 47.27 μg/cm^2 | Susceptible LC50 ([6]; Experiment 1): 0.122 μg/cm^2 | Susceptible LC50 ([6]; Experiment 2): 0.057 μg/cm^2 | Susceptible LC50 ([6]; Experiment 3): 0.013 μg/cm^2

N#Cc1c(-c2ccc(Cl)cc2)[nH]c(C(F)(F)F)c1Br [Compound C, 4-Bromo-2-(p-chlorophenyl)-5-(trifluoromethyl)pyrrole-3-carbonitrile]
Susceptible LC50 [1]: 21.237 μg/cm^2 | RF (resistance factor; Resistant LC50 ÷ Susceptible LC50) [4]: 0.088 | Resistant LC50 [4]: 1.877 μg/cm^2

CCOCn1c(-c2ccc(Cl)cc2)c(C#N)c(Cl)c1C(F)(F)F [Compound D, 4-Chloro-2-(p-chlorophenyl)-1-(ethoxymethyl)-5-(trifluoromethyl)pyrrole-3-carbonitrile]
Susceptible LC50 [1]: 8.692 μg/cm^2 | RF (resistance factor; Resistant LC50 ÷ Susceptible LC50) [4]: 0.123 | Resistant LC50 [4]: 1.066 μg/cm^2

CC1(C)C(C=C(Cl)Cl)C1C(=O)OCc1cccc(Oc2ccccc2)c1 (centres unmarked) [Compound E, Permethrin, reference compound]
Susceptible LC50 [1]: 0.102 μg/cm^2 | RF (resistance factor; Resistant LC50 ÷ Susceptible LC50) [4]: 80.0 | Resistant LC50 [4]: 8.16 μg/cm^2
